Measurements: patent US20250108135A1, “TERAGNOSTIC METHOD FOR CANCER PATIENTS” (priority 2022, published 2025)

Assays:
[1] = Effective dose of the diagnostic 64CuCl2 administration; type: in vivo, human; conditions: diagnostic dose 370-925 MBq
Source text: Patients with tumor received ^64CuCl2 at a dose between 370-925 MBq to ensure appropriate image quality. The mean effective dose for ^64CuCl2 calculated is 20 mSv per exam, which is aligned with the ones from the conventional PET imaging.

U-87 GM cells = conditions: nude mice implanted with U-87 GM cells; cited from earlier work
[2] = test system: U87MG, PC-3, CAMA1, C8161, HT-29, A549 cancer cell lines; assay: 64CuCl2 tumor cell uptake (internalization) at different radioconcentrations; type: cell-based; conditions: 4 h after treatment; same dose of radioactivity; higher radioconcentrations (2,775 and 1,850 MBq/mL) compared to the lowest (925 MBq/mL); all the cell lines
Description: (§1) The capability resulted improved at a radioconcentration higher than 925 MBq/mL compared to lower concentrations. This is the first time that the impact of the drug radioconcentration has been correlated to the cell-killing effect for the translation to humans. The inventor performed internalization and survival studies on different cancer cell lines (U87MG [glioblastoma], PC-3[prostate cancer], CAMA1 [breast cancer], C8161[melanoma], HT-29[colorectal cancer]), A549 [lung cancer] applying the same amount (dose) of radioactivity (eg. 10 MBq), but at different radioconcentrations, e.g. 2,775 MBq/mL vs. 1,850 MBq/mL, vs. 925MBq/mL.
(§2) This effect of the radioconcentration could have a great impact on patients for the optimization of treatment. In fact, in consideration of the mechanism through which ^64Cu reaches the tumor cell, the different radioconcentrations, that is to say “the number of nuclear disintegrations per unit time in a given amount of the preparation”, can influence the biodistribution in vivo. […]
FIG. 1—Impact of different radioconcentrations on tumor cell uptake ^64CuCl2 cell uptake in different tumor cell lines U87MG, PC-3, CAMA1, C8161, HT-29. Cell uptake was evaluated treating cells at the same dosage (15 MBq/dish 100 mm), but at three different radioconcentrations C1=925 MBq/mL, C2=1,850 MBq/mL, C3=2,775 MBq/mL. Values are expressed as mean ±SEM.

B16F10 or A375M tumors = conditions: vs control group, cited from earlier work
[3] = test system: Human GBM cell lines (LI) PARI, ADF and T98G; conditions: time and dose dependent; cited from earlier work
[4] = test system: 5 human neoplastic cell lines (ovarian cancer, head and neck, neuroendocrine lung carcinoma, colorectal cancer, glioblastoma); conditions: microPET after administration of 64CuCl2; cited from earlier work
[5] = test system: PCa spheroids (derived from 22RV1, DU145, and LNCaP cells); conditions: in vitro; cited from earlier work
[6] = Biodistribution, pharmacokinetics, dosimetry and safety in glioblastoma patients; type: in vivo, human
Description: Six glioblastoma patients were evaluated for safety profile and the study of biodistribution was conducted including evaluation of PET/CT scans after first daily dose administration of radiopharmaceutical composition having a radioconcentration of 2,775 MBq/mL (day 0), at different time points 1 h, 4 h, 24 h, 48 h after injection and pharmacokinetic (PK) radioactivity on blood samples at different time points of administration.

glioblastoma = assay: Response to 64CuCl2 treatment in glioblastoma patients (MRI, RANO criteria); type: in vivo, human
Description: A glioblastoma patient of 70 kg that belongs to the class of recurrent glioblastoma. The patient underwent surgery, radiotherapy and chemotherapy and after that experienced recurrence. Standard treatment are not effective in this setting therefore the patient received a diagnostic dose of ^64CuCl2 equal to 925 MBq. After 1 h from administration a PET/CT scan is performed. The patient resulted positive for copper lesion at the diagnostic dose and started treatment
The treatment with ^64CuCl2 (2,775 MBq/mL) for intravenous use by injection followed this scheme and the patient received once a week: • 1st dose=4,810 MBq, 2nd dose=4,810 MBq, 3rd dose=4,810 MBq, 4th dose=4,810 MBq, 5th dose=4,810 MBq, 6th dose=4,810 MBq, 7th dose=4,810 MBq
The patient (71 Kg) underwent surgery, radiotherapy and chemotherapy and after that experienced recurrence. Standard treatments are not effective in this setting therefore the patient received a diagnostic dose of ^64CuCl2 equal to 925 MBq. After 1 h from administration a PET/CT scan is performed. The patient resulted positive for copper lesion at the diagnostic dose and started treatment (^64CuCl2 277 MBq/mL for intravenous by infusion).
The treatment followed this scheme and the patient received once a week: • 1st dose=1,850 MBq, 2nd dose=2,460 MBq, 3rd dose=2,922 MBq, 4th dose=3,292 MBq, 5th dose=3,606 MBq, 6th dose=3,865 MBq, 7th dose=4,068 MBq.
The phase I clinical trial on glioblastoma is the first study evaluating preliminary efficacy of ^64CuCl2 2,775 MBq/mL as therapeutic agent. This determination was performed on 10 patients, at the end of the 7th therapy dose, at 90th day (after 3 months of the last treatment) and whenever possible at 180th day to obtain a wider evaluation of the disease status. Data cut-off was performed after 5 patients. The response to treatment, in term of anti-tumor activity of ^64CuCl2, was measured by MRI, assessed according to the RANO criteria (Response Assessment in Neuro-Oncology, see Wen PY et al.) and defined as complete response (disappearance of tumor) partial response (reduction) and stable disease (non-progression of GBM). Among these patients 4 resulted responders and 1 non-responder. […] Tumor volume reduction ≥50% was also shown in two cases after three months from the last treatment, and in one patient after 6 months from the last treatment.

prostate cancer = assay: Response to 64CuCl2 treatment in prostate cancer patients (PET/CT); type: in vivo, human
Description: The patient at initial diagnosis had local tumor, and after surgery (radical prostatectomy) they underwent radiotherapy and chemotherapy. However, they experienced local recurrence plus a bone metastatic lesion. After receiving all standard treatments, the patient received a diagnostic dose of ^64CuCl2 equal to 925 MBq. After 1 h from administration a PET/CT scan is performed. The patient resulted positive for copper lesion at the diagnostic dose and started treatment. […] The PET/CT acquired the same day of the 4th therapeutic administration and the PET/CT acquired before treatment beginning were analyzed by two independent observers (a third observer expressed another evaluation only in case of discrepancies).

U87MG = assay: Cell survival (cell-killing effect) at different radioconcentrations; type: cell-based
Description: as §1, §2
Survival curve of U87MG treated with the same dosage range but at three different concentrations C1=925 MBq/mL, C2=1,850 MBq/mL, C3=2,775 MBq/mL. Value are expressed as mean ±SEM. […]

[7] = six glioblastoma patients, 2,775 MBq/mL
[8] = phase I glioblastoma, 2,775 MBq/mL, data cut-off after 5 patients, 7 treatments

For [Cl][Cu][Cl] [^64CuCl2, Copper Chloride], the “mean effective dose per exam” value [1] is listed as 20 mSv, the “tumor volume, in some cases” value (U-87 GM cells) is listed as “complete regression” and the cell uptake [2] is listed as “significantly greater”. For the same compound, the tumor growth (B16F10 or A375M tumors; B16F10 and A375M models, one dose about 74 MBq) was “much slower than that of the control group”, the survival (B16F10 or A375M tumors; mice bearing B16F10 or A375M tumors) was “significantly improved survival” and the “modulation of cell viability” value [3] was “dose dependent”. The “uptake of 64Cu2+ by neoplastic tissues” value [4] was “significant uptake”, the growth of spheroids [5] was “reduce their growth” and the “treatment related toxicities associated to liver/kidney and red marrow distribution” value ([6]; glioblastoma patients) was “No treatment related toxicities were registered”. For the same compound, the “biodistribution (organ uptake)” value [6, 7] was “significant uptake in the liver (as expected) followed by kidney and L2-L4 regions”, the “effective dose, median” value [6, 7] was 26.08 mSv and the “64Cu uptake over time (pharmacokinetic profile)” value ([6]; six glioblastoma patients, 2,775 MBq/mL, PET/CT 1 h, 4 h, 24 h, 48 h after injection) was “increases up to 4 h post-injection and decreased thereafter”. The “patients with tumor volume reduction ≥50%” value (glioblastoma; 6 months from the last treatment) was “one”, the “patients with reduction of tumor volume ≥50% compared to baseline MRI” value (glioblastoma; day 42 evaluation) was “one” and the “patients with stable disease” value (glioblastoma; day 42 evaluation, responder patients) was 3 patients. For the same compound, the “patients with stable disease” value (glioblastoma; day 90) was 2 patients, the number of non-responders (glioblastoma; [8]) was 1 and the number of responders (glioblastoma; [8]) was 4. For the same compound, the “response to the treatment” value (glioblastoma; recurrent glioblastoma patient (71 Kg), 277 MBq/mL i.v. infusion, 7 increasing doses 1,850-4,068 MBq once a week) was “responder”, the “cases with tumor volume reduction ≥50%” value (glioblastoma; three months from the last treatment) was “two” and the “patients with stable disease” value (glioblastoma; up to six months after treatment) was “one”. For the same compound, the “volume of lesions (PET/CT)” value (prostate cancer; five prostate cancer patients, after 4 administrations, 2,775 MBq/mL solution for injection) was “a reduction or a non-progression”, the “tumor lesions on the bone, PET/CT before and after treatment” value (prostate cancer; metastatic prostate cancer patient, 2,775 MBq/mL injection, 7 doses of 4,810 MBq once a week) was “reduction of the tumor lesions on the bone” and the cell-killing effect (U87MG; 24 h after treatment, 2,775 MBq/mL, U87MG survival curve) was “increased cell-killing effect”. For the same compound, the “improved cell killing-effect compared to C1” value (U87MG; C3=2,775 MBq/mL vs C1=925 MBq/mL at D4=1.7 MBq and D5=3.4 MBq) was “about 30%”.
